Experimental data as given in patent US20250243180A1, “TARGETED PROTEIN DEGRADATION” (Monte Rosa Therapeutics AG, priority 2023, published 2025).

What follows are molecules tested against CRBN-DDB1 (Homo sapiens (Human), UniProt Q96SW2) (assay: Compound binding to CRBN by HTRF assay). Settings: not given.
Method in brief: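 Ki calculated via Cheng-Prusoff from geometric-mean EC50 values, after normalizing the HTRF ratio to lenalidomide (active) and DMSO (neutral) controls. Compounds (11 points, 1:3 steps) incubated 30 min at ambient temperature with CRBN-DDB1 2.5 nM, anti-His Tb cryptate and Cy5-thalidomide tracer 100 nM.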

Chain of CRBN-DDB1 (Q96SW2 whole entry): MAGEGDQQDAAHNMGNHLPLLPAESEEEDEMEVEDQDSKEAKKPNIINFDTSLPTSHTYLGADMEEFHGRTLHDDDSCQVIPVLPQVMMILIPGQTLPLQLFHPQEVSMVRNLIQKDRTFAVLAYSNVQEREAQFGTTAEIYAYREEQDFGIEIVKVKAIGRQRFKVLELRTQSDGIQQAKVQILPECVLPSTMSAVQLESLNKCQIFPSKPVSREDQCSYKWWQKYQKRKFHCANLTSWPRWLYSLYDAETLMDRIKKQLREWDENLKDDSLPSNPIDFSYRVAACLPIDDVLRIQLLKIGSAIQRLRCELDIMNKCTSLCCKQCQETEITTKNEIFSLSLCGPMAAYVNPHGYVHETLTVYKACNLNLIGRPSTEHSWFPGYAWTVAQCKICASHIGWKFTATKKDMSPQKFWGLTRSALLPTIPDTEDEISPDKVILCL
Chain of CRBN-DDB1 (Q16531 whole entry partner): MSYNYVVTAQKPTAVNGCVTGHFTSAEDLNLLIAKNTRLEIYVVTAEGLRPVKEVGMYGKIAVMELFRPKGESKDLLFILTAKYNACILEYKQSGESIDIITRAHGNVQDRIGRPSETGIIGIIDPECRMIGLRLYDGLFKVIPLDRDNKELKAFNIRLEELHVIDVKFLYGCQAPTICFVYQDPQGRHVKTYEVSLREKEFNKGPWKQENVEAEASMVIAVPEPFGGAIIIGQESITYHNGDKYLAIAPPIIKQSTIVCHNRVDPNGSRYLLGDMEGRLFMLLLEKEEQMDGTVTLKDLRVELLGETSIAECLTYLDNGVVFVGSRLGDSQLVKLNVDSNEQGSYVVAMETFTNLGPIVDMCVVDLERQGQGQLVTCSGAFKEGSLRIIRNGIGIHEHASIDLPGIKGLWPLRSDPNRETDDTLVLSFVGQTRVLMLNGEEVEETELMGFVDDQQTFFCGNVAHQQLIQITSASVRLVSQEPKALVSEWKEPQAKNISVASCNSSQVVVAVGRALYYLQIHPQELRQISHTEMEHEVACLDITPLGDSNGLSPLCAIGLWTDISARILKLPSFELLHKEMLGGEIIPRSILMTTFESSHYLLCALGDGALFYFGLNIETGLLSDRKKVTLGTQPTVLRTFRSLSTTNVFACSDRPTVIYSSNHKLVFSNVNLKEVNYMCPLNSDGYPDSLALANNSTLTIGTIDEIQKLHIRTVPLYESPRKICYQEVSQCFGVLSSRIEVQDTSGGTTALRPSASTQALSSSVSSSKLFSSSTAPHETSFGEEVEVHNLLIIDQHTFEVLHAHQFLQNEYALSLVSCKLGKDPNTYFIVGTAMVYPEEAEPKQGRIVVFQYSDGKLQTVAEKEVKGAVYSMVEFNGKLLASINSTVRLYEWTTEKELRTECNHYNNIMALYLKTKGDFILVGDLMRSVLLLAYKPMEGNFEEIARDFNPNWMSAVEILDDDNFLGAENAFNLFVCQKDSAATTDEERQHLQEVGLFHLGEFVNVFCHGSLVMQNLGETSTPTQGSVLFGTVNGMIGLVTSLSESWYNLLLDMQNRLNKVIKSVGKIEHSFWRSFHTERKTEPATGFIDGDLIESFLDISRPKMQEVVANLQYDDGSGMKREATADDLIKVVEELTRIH

Row | SMILES | EC50 [µM]
1 | CC(F)(F)c1cnc(C(C)(C)C(=O)NCc2cc(Cl)c(C3CCC(=O)NC3=O)c(Cl)c2)nc1 (stereo not drawn) [Compound 187] | 0.1
2 | CC(C)(C(=O)NCc1cc(Cl)c(C2CCC(=O)NC2=O)c(Cl)c1)c1ncc(OC(F)F)cn1 (stereo not drawn) [Compound 188] | 0.08
3 | COc1cnc(C(C)(C)C(=O)NCc2cc(Cl)c(C3CCC(=O)NC3=O)c(Cl)c2)nc1 (stereo not drawn) [Compound 189] | 0.07
4 | CC(C)(C(=O)NCc1cc(Cl)c(C2CCC(=O)NC2=O)c(Cl)c1)c1cc2cccnc2cn1 (stereo not drawn) [Compound 190] | 0.09
5 | CC(C)(C(=O)NCc1cc(Cl)c(C2CCC(=O)NC2=O)c(Cl)c1)c1ccc(C(F)(F)F)nn1 (stereo not drawn) [Compound 191] | 0.17
6 | CC(C)(C(=O)NCc1cc(Cl)c(C2CCC(=O)NC2=O)c(Cl)c1)c1nc(C2CC2)co1 (stereo not drawn) [Compound 193] | 0.08
7 | CC(C)(C(=O)NCc1cc(Cl)c(C2CCC(=O)NC2=O)c(Cl)c1)c1ncc(Cl)cn1 (stereo not drawn) [Compound 194] | 0.12
8 | CC(C)(C(=O)NCc1cc(Cl)c(C2CCC(=O)NC2=O)c(Cl)c1)c1ncc(CC(F)(F)F)cn1 (stereo not drawn) [Compound 195] | 0.22
9 | CC(C)(C(=O)NCc1cc(Cl)c(C2CCC(=O)NC2=O)c(Cl)c1)c1cnc(C(F)F)cn1 (stereo not drawn) [Compound 196] | 0.31

Same assay, conditions: HTRF class; Cereblon binding

Row | SMILES | EC50 [µM]
10 | CC(F)(F)c1cnc(C(C)(C)C(=O)NCc2cc(Cl)c(C3CCC(=O)NC3=O)c(Cl)c2)nc1 (stereo not drawn) [Compound 187] | 0.1 to 1
11 | CC(C)(C(=O)NCc1cc(Cl)c(C2CCC(=O)NC2=O)c(Cl)c1)c1ncc(OC(F)F)cn1 (stereo not drawn) [Compound 188] | ≤ 0.1
12 | COc1cnc(C(C)(C)C(=O)NCc2cc(Cl)c(C3CCC(=O)NC3=O)c(Cl)c2)nc1 (stereo not drawn) [Compound 189] | ≤ 0.1
13 | CC(C)(C(=O)NCc1cc(Cl)c(C2CCC(=O)NC2=O)c(Cl)c1)c1cc2cccnc2cn1 (stereo not drawn) [Compound 190] | ≤ 0.1
14 | CC(C)(C(=O)NCc1cc(Cl)c(C2CCC(=O)NC2=O)c(Cl)c1)c1ccc(C(F)(F)F)nn1 (stereo not drawn) [Compound 191] | 0.1 to 1
15 | CC(C)(C(=O)NCc1cc(Cl)c(C2CCC(=O)NC2=O)c(Cl)c1)c1nc(C2CC2)co1 (stereo not drawn) [Compound 193] | ≤ 0.1
16 | CC(C)(C(=O)NCc1cc(Cl)c(C2CCC(=O)NC2=O)c(Cl)c1)c1ncc(Cl)cn1 (stereo not drawn) [Compound 194] | 0.1 to 1
17 | CC(C)(C(=O)NCc1cc(Cl)c(C2CCC(=O)NC2=O)c(Cl)c1)c1ncc(CC(F)(F)F)cn1 (stereo not drawn) [Compound 195] | 0.1 to 1
18 | CC(C)(C(=O)NCc1cc(Cl)c(C2CCC(=O)NC2=O)c(Cl)c1)c1cnc(C(F)F)cn1 (stereo not drawn) [Compound 196] | 0.1 to 1

The molecules below were run against NEK7 (Homo sapiens (Human), UniProt Q8TDX7+Q96SW2) (assay: NEK7 NanoBiT degradation assay in Cal51 NEK7 NanoBiT cell line). Settings: CAL-51; Cal51 NEK7 NanoBiT cells, 24 hours; read-out: NEK7 NanoBiT Dmax.
Type: cell-based
Method in brief: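 EC50 comes from a 4-parameter fit of control-normalized luminescence. The luminescence reports HiBiT-NEK7 (endogenous knock-in) complemented by stably expressed LgBiT in Cal51 cells after 24 h compound exposure at 37 °C. Final concentrations ran 1 μM to 0.05 nM, with Endurazine substrate present in the medium throughout.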

Chain of NEK7 (Q8TDX7 whole entry): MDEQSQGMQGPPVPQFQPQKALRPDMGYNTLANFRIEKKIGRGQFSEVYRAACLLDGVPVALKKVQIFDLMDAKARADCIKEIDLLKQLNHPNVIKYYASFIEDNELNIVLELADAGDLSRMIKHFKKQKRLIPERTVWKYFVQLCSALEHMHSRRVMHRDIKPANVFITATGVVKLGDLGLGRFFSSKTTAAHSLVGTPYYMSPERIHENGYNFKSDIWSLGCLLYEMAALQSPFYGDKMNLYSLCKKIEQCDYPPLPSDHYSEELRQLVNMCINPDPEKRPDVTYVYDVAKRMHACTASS
Chain of NEK7 (Q96SW2 whole entry): as the sequence (Q96SW2 whole entry) above
Chain of NEK7 (Q16531 2-1140 partner): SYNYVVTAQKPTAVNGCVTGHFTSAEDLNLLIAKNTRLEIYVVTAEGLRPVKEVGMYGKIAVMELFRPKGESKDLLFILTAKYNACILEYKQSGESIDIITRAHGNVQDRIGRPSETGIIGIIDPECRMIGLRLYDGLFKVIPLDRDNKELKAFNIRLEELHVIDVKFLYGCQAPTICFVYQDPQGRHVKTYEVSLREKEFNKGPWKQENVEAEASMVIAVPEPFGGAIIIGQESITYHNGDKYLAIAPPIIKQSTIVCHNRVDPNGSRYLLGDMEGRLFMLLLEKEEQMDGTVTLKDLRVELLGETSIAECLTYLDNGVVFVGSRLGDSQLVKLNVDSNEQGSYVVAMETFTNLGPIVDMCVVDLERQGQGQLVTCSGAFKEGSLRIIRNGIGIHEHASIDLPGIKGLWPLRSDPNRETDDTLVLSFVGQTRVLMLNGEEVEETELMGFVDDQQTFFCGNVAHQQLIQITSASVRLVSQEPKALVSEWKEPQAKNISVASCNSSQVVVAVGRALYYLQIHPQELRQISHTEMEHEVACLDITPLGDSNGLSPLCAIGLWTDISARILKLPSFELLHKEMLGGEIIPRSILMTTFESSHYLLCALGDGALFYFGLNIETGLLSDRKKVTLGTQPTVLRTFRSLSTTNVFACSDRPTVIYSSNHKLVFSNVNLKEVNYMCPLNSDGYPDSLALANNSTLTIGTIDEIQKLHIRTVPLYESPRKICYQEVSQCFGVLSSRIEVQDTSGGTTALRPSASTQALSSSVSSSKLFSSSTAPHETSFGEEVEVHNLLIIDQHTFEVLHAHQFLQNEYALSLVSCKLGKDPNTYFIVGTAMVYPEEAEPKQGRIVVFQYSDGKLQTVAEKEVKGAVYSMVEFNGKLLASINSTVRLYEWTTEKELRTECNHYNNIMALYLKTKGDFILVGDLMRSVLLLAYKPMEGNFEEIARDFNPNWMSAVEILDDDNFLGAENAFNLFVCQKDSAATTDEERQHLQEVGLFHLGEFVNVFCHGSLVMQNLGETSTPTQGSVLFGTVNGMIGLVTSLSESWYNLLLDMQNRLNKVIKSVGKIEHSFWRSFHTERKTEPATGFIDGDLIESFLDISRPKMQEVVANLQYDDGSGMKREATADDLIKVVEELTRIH

Row | SMILES | Dmax [%]
19 | CC(F)(F)c1cnc(C(C)(C)C(=O)NCc2cc(Cl)c(C3CCC(=O)NC3=O)c(Cl)c2)nc1 (stereo not drawn) [Compound 187] | 93
20 | CC(C)(C(=O)NCc1cc(Cl)c(C2CCC(=O)NC2=O)c(Cl)c1)c1ncc(OC(F)F)cn1 (stereo not drawn) [Compound 188] | 93
21 | COc1cnc(C(C)(C)C(=O)NCc2cc(Cl)c(C3CCC(=O)NC3=O)c(Cl)c2)nc1 (stereo not drawn) [Compound 189] | 94
22 | CC(C)(C(=O)NCc1cc(Cl)c(C2CCC(=O)NC2=O)c(Cl)c1)c1cc2cccnc2cn1 (stereo not drawn) [Compound 190] | 90
23 | CC(C)(C(=O)NCc1cc(Cl)c(C2CCC(=O)NC2=O)c(Cl)c1)c1ccc(C(F)(F)F)nn1 (stereo not drawn) [Compound 191] | 85
24 | CC(C)(C(=O)NCc1cc(Cl)c(C2CCC(=O)NC2=O)c(Cl)c1)c1nc(C2CC2)co1 (stereo not drawn) [Compound 193] | 87
25 | CC(C)(C(=O)NCc1cc(Cl)c(C2CCC(=O)NC2=O)c(Cl)c1)c1ncc(Cl)cn1 (stereo not drawn) [Compound 194] | 96
26 | CC(C)(C(=O)NCc1cc(Cl)c(C2CCC(=O)NC2=O)c(Cl)c1)c1ncc(CC(F)(F)F)cn1 (stereo not drawn) [Compound 195] | 63
27 | CC(C)(C(=O)NCc1cc(Cl)c(C2CCC(=O)NC2=O)c(Cl)c1)c1cnc(C(F)F)cn1 (stereo not drawn) [Compound 196] | 90

Same assay, conditions: CAL-51; NEK7 degradation, Cal51 NEK7 NanoBiT cells, 24 hours; read-out: NanoBiT Dmax

Row | SMILES | Dmax [%]
28 | CC(F)(F)c1cnc(C(C)(C)C(=O)NCc2cc(Cl)c(C3CCC(=O)NC3=O)c(Cl)c2)nc1 (stereo not drawn) [Compound 187] | > 75
29 | CC(C)(C(=O)NCc1cc(Cl)c(C2CCC(=O)NC2=O)c(Cl)c1)c1ncc(OC(F)F)cn1 (stereo not drawn) [Compound 188] | > 75
30 | COc1cnc(C(C)(C)C(=O)NCc2cc(Cl)c(C3CCC(=O)NC3=O)c(Cl)c2)nc1 (stereo not drawn) [Compound 189] | > 75
31 | CC(C)(C(=O)NCc1cc(Cl)c(C2CCC(=O)NC2=O)c(Cl)c1)c1cc2cccnc2cn1 (stereo not drawn) [Compound 190] | > 75
32 | CC(C)(C(=O)NCc1cc(Cl)c(C2CCC(=O)NC2=O)c(Cl)c1)c1ccc(C(F)(F)F)nn1 (stereo not drawn) [Compound 191] | > 75
33 | CC(C)(C(=O)NCc1cc(Cl)c(C2CCC(=O)NC2=O)c(Cl)c1)c1nc(C2CC2)co1 (stereo not drawn) [Compound 193] | > 75
34 | CC(C)(C(=O)NCc1cc(Cl)c(C2CCC(=O)NC2=O)c(Cl)c1)c1ncc(Cl)cn1 (stereo not drawn) [Compound 194] | > 75
35 | CC(C)(C(=O)NCc1cc(Cl)c(C2CCC(=O)NC2=O)c(Cl)c1)c1ncc(CC(F)(F)F)cn1 (stereo not drawn) [Compound 195] | 50 to 75
36 | CC(C)(C(=O)NCc1cc(Cl)c(C2CCC(=O)NC2=O)c(Cl)c1)c1cnc(C(F)F)cn1 (stereo not drawn) [Compound 196] | > 75

Same assay, conditions: Cal51 NEK7 NanoBiT cells, 24 hours; read-out: NEK7 NanoBiT DC50

Row | SMILES | DC50 [µM]
37 | CC(F)(F)c1cnc(C(C)(C)C(=O)NCc2cc(Cl)c(C3CCC(=O)NC3=O)c(Cl)c2)nc1 (stereo not drawn) [Compound 187] | 0.004
38 | CC(C)(C(=O)NCc1cc(Cl)c(C2CCC(=O)NC2=O)c(Cl)c1)c1ncc(OC(F)F)cn1 (stereo not drawn) [Compound 188] | 0.004
39 | COc1cnc(C(C)(C)C(=O)NCc2cc(Cl)c(C3CCC(=O)NC3=O)c(Cl)c2)nc1 (stereo not drawn) [Compound 189] | 0.004
40 | CC(C)(C(=O)NCc1cc(Cl)c(C2CCC(=O)NC2=O)c(Cl)c1)c1cc2cccnc2cn1 (stereo not drawn) [Compound 190] | 0.006
41 | CC(C)(C(=O)NCc1cc(Cl)c(C2CCC(=O)NC2=O)c(Cl)c1)c1ccc(C(F)(F)F)nn1 (stereo not drawn) [Compound 191] | 0.013
42 | CC(C)(C(=O)NCc1cc(Cl)c(C2CCC(=O)NC2=O)c(Cl)c1)c1nc(C2CC2)co1 (stereo not drawn) [Compound 193] | 0.01
43 | CC(C)(C(=O)NCc1cc(Cl)c(C2CCC(=O)NC2=O)c(Cl)c1)c1ncc(Cl)cn1 (stereo not drawn) [Compound 194] | 0.001
44 | CC(C)(C(=O)NCc1cc(Cl)c(C2CCC(=O)NC2=O)c(Cl)c1)c1ncc(CC(F)(F)F)cn1 (stereo not drawn) [Compound 195] | 0.138
45 | CC(C)(C(=O)NCc1cc(Cl)c(C2CCC(=O)NC2=O)c(Cl)c1)c1cnc(C(F)F)cn1 (stereo not drawn) [Compound 196] | 0.009

Same assay, conditions: NEK7 degradation, Cal51 NEK7 NanoBiT cells, 24 hours; read-out: NanoBiT DC50

Row | SMILES | DC50 [µM]
46 | CC(F)(F)c1cnc(C(C)(C)C(=O)NCc2cc(Cl)c(C3CCC(=O)NC3=O)c(Cl)c2)nc1 (stereo not drawn) [Compound 187] | ≤ 0.1
47 | CC(C)(C(=O)NCc1cc(Cl)c(C2CCC(=O)NC2=O)c(Cl)c1)c1ncc(OC(F)F)cn1 (stereo not drawn) [Compound 188] | ≤ 0.1
48 | COc1cnc(C(C)(C)C(=O)NCc2cc(Cl)c(C3CCC(=O)NC3=O)c(Cl)c2)nc1 (stereo not drawn) [Compound 189] | ≤ 0.1
49 | CC(C)(C(=O)NCc1cc(Cl)c(C2CCC(=O)NC2=O)c(Cl)c1)c1cc2cccnc2cn1 (stereo not drawn) [Compound 190] | ≤ 0.1
50 | CC(C)(C(=O)NCc1cc(Cl)c(C2CCC(=O)NC2=O)c(Cl)c1)c1ccc(C(F)(F)F)nn1 (stereo not drawn) [Compound 191] | ≤ 0.1
51 | CC(C)(C(=O)NCc1cc(Cl)c(C2CCC(=O)NC2=O)c(Cl)c1)c1nc(C2CC2)co1 (stereo not drawn) [Compound 193] | ≤ 0.1
52 | CC(C)(C(=O)NCc1cc(Cl)c(C2CCC(=O)NC2=O)c(Cl)c1)c1ncc(Cl)cn1 (stereo not drawn) [Compound 194] | ≤ 0.1
53 | CC(C)(C(=O)NCc1cc(Cl)c(C2CCC(=O)NC2=O)c(Cl)c1)c1ncc(CC(F)(F)F)cn1 (stereo not drawn) [Compound 195] | 0.1 to 1
54 | CC(C)(C(=O)NCc1cc(Cl)c(C2CCC(=O)NC2=O)c(Cl)c1)c1cnc(C(F)F)cn1 (stereo not drawn) [Compound 196] | ≤ 0.1
